From patent US9044486B2, “Method for prophylaxis or treatment of feline infectious peritonitis” (Cornell University, priority 2008, dated 2015)
Like-named read-outs stand apart in the source and are kept apart here. Where a SMILES comes first, the peptide text is derived from it. The star is where a group is joined. Cbz = O=C(OCc1ccccc1)*; CHN2 = [N-]=[N+]=C*; tBu = CC(C)(C)*

Key:
[1] = test system: FIPV-DF2; assay: Infection of feline cell lines CRFK, AK-D, Fc2Lu by immunofluorescence; type: cell-based, Feline infectious peritonitis virus
[2] = test system: FIPV-1146; assay: as above; type: cell-based, Feline infectious peritonitis virus
[3] = test system: FECV-1683; assay: Infection (entry) assay by immunofluorescence, A-72 cells; type: cell-based, feline enteric coronavirus; conditions: for infection by FECV-1683 (entry), inhibitor pre-incubation: five log dilutions of inhibitor 60 min pre-infection; for infection by FECV-1683 (entry), inhibitor pre-incubation / infection by FECV-1683, inhibitor treatment after entry: fixed 6 h post-infection; for infection by FECV-1683, inhibitor treatment after entry: inhibitor 60 min post-infection
[4] = test system: Sendai virus; type: cell-based
[5] = test system: FIPV-1146; type: cell-based, Feline infectious peritonitis virus; conditions: for infection by FIPV-1146 (entry), inhibitor pre-incubation: five log dilutions of inhibitor 60 min pre-infection
[6] = test system: FECV-1683; assay: Infection of feline cell lines CRFK, AK-D, Fc2Lu by immunofluorescence; type: cell-based, feline enteric coronavirus; conditions: Fc2Lu cells, pretreated with 10 uM inhibitor or 10 mM NH4Cl, 6 h post-infection
[7] = test system: influenza virus; type: cell-based; conditions: for influenza virus entry, cathepsin inhibitor treatment: anti-influenza nucleoprotein mAb H19
[8] = test system: FIPV-1146; assay: Growth assay: production of extracellular virus by TCID50, A-72 cells; type: cell-based, Feline infectious peritonitis virus; conditions: A-72 cells pretreated with 10 μM inhibitor; media collected 9 h post-infection; vs DMSO control
[9] = test system: FECV-1683; assay: as above; type: cell-based, feline enteric coronavirus; conditions: A-72 cells pretreated with 10 μM inhibitor; media collected 9 h post-infection; vs DMSO control
[10] = test system: FIPV-DF2; assay: Infection of primary feline blood monocytes by immunofluorescence; type: cell-based, Feline infectious peritonitis virus; conditions: monocytes pretreated with 10 μM inhibitor; 12 h post-infection
[11] = test system: FIPV-1146; assay: as above; type: cell-based, Feline infectious peritonitis virus; conditions: monocytes pretreated with 10 μM inhibitor; 12 h post-infection
[12] = test system: murine coronavirus (A59); conditions: cited from earlier work
[13] = test system: human coronaviruses; conditions: cited from earlier work
[14] = test system: FIPV; conditions: cited from earlier work
[15] = test system: influenza virus; type: cell-based; conditions: A-72 cells pretreated with inhibitor; control virus
[16] = target: T1, cathepsin B (Mus musculus, UniProt P10605); conditions: 10 mg/kg; cited from earlier work
T1 construct: host or cells: mouse (in vivo)

[17] = target: cathepsin B (Homo sapiens, UniProt P07858); conditions: kinact/Ki (k2/Ki); cited from earlier work
[18] = test system: serotype I FIPV black strain; assay: Infection of AK-D cells by a serotype I FCoV, immunofluorescence; type: cell-based, Feline infectious peritonitis virus; conditions: AK-D cells pretreated with 10 uM inhibitor
Experimental: AK-D cells were pretreated with either 10 uM cathepsin B inhibitor CA074-Me (CatB-I), 10 uM cathepsin L inhibitor Z-FY(tBu)-DMK (CatL-I), or 10 mM NH4Cl, and then infected with virus the serotype I FIPV black strain. Immunofluorescence was performed essentially as described for FIG. 4.
AK-D cells were pretreated with either 10 uM cathepsin B inhibitor CA074-Me (CatB-I), 10 uM cathepsin L inhibitor Z-FY(tBu)-DMK (CatL-I), or 10 mM NH4Cl, and then infected with virus FIPV black strain, a serotype I FIPV. Immunofluorescence was performed essentially as described for FIG. 4.

[19] = target: cathepsin L (Homo sapiens, UniProt P07711); conditions: kinact/Ki (k2/Ki); cited from earlier work
[20] = A-72 cells, fixed 6 h post-infection
[21] = CRFK, AK-D, Fc2Lu cells, pretreated with 10 uM inhibitor or 10 mM NH4Cl, 6 h post-infection
[22] = A-72 cells, 1 h post-infection, concentrations shown in FIG. 3
[23] = A-72 cells, pretreatment with 50 nM bafilomycin A1
[24] = A-72 cells, post-treatment at the concentrations shown in FIG. 3

Chain of cathepsin L (P07711 114-333, species assumed): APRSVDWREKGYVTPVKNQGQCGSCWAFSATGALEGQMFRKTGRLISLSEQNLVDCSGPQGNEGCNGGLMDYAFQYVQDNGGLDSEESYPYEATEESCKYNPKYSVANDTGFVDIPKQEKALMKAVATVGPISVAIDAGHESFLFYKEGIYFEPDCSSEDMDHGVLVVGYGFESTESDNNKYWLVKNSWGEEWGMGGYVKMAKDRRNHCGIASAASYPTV
T1 sequence (P10605 80-333): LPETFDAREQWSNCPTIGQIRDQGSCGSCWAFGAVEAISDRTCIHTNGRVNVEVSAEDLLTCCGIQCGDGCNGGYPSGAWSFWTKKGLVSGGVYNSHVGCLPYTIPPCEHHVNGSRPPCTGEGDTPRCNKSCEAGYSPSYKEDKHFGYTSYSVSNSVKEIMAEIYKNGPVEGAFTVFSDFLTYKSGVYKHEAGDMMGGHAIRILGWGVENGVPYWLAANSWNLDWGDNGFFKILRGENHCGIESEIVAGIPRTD

Cl.N [NH4Cl]
infection by FIPV-DF2 of feline cell lines [1]: only a marginal effect
infection by FIPV-1146 of feline cell lines [2]: only a marginal effect
FECV-1683 infection, lysosomotropic agent treatment after entry [3]: minimal effect
FECV-1683 infectivity, treatment after entry at higher concentrations [3]: significantly reduce infectivity
entry by FECV-1683 [3]: almost completely blocked entry
Sendai virus entry [4]: no reduction in entry
FIPV-1146 entry [5]: only partially blocked
FIPV-1146 infection, lysosomotropic agent treatment after entry [5]: minimal effect
FIPV-1146 infectivity, treatment after entry at higher concentrations [5]: significantly reduce infectivity
inhibition of entry of FIPV-1146 [5]: approximately 20%
infection by FECV-1683 of feline cell lines [6]: selectively inhibited
influenza virus entry [7]: completely inhibited

CC(C)C[C@H](NC(=O)OCc1ccccc1)C(=O)NNC(=O)NNC(=O)[C@H](CC(C)C)NC(=O)[C@H](Cc1ccccc1)NC(=O)OC(C)(C)C [Boc1, 1-(N-Benzyloxycarbonyl-leucyl)-5-(N-Boc-phenylalanyl-leucyl)carbohydrazide]
infection by FECV-1683 (entry), inhibitor pre-incubation ([3]; A-72 cells): no effect
infection by FIPV-1146 (entry), inhibitor pre-incubation [5, 20]: no effect
production of FIPV-1146 viral particles (extracellular virus, TCID50) [8]: no significant effect
influenza virus entry, cathepsin inhibitor treatment [7, 20]: no effect
production of FECV-1683 viral particles (extracellular virus, TCID50) [9]: no significant effect

CC(C)(C)Oc1ccc(C[C@H](NC(=O)[C@H](Cc2ccccc2)NC(=O)OCc2ccccc2)C(=O)C=[N+]=[N-])cc1 [Z-FY-(tBu)-DMK, Z-Phe-Tyr(t-Bu)-diazomethylketone] (Cbz-Phe-Tyr(tBu)-CHN2)
infection by FIPV-DF2 of feline cell lines [1, 21]: little or no effect
infection by FIPV-1146 of feline cell lines [2, 21]: little or no effect
infection by FECV-1683 (entry), inhibitor pre-incubation ([3]; A-72 cells): potently blocked infection
infection by FECV-1683, inhibitor treatment after entry ([3]; A-72 cells): no effect
effect on FIPV-DF2 infection of primary feline monocytes (in words) [10]: no significant effect
infection by FIPV-1146 (entry), inhibitor pre-incubation [5, 20]: no effect on FIPV-1146 entry, except for some limited effect at the highest concentration tested
infection by FECV-1683 of feline cell lines [6]: selectively inhibited
production of FIPV-1146 viral particles (extracellular virus, TCID50) [8]: only a negligible effect
influenza virus entry, cathepsin inhibitor treatment ([7]; A-72 cells, […]): Neither the cathepsin B nor the cathepsin L inhibitor had an effect
effect on FIPV-1146 infection of primary feline monocytes (in words) [11]: no significant effect
production of FECV-1683 viral particles (extracellular virus, TCID50) [9]: greatly diminished the propagation

CC(=O)N[C@@H](CC(C)C)C(=O)N[C@@H](CC(C)C)C(=O)N[C@H](C=O)CCCNC(=N)N [leupeptin]
replication of murine coronavirus A59 [12]: does not strongly inhibit
replication of human coronavirus [13]: inhibits
inhibition of FIPV [14]: does not strongly inhibit

CCOC(=O)[C@H]1O[C@@H]1C(=O)N[C@@H](CC(C)C)C(=O)NCCC(C)C [E-64d, (2S,3S)-trans-Epoxysuccinyl-L-leucylamido-3-methylbutane ethyl ester]
effect on influenza virus infection [15]: no effect
production of FIPV-1146 viral particles (extracellular virus, TCID50) [8]: significantly reduced
production of FECV-1683 viral particles (extracellular virus, TCID50) [9]: significantly reduced

CO/C1=C\C(C)=C\[C@@H](C)[C@@H](O)[C@@H](C)C/C(C)=C/C=C/[C@H](OC)[C@@H]([C@@H](C)[C@@H](O)[C@H](C)[C@@]2(O)C[C@@H](O)[C@H](C)[C@@H](C(C)C)O2)OC1=O [bafilomycin A1]
FECV-1683 infectivity, treatment after entry at higher concentrations [3]: significantly reduce infectivity
FECV-1683 infection, lysosomotropic agent treatment after entry [3, 22]: minimal effect
entry of FECV-1683 [3, 23]: completely blocked entry
Sendai virus entry ([4]; A-72 cells, bafilomycin A1 at the concentrations tested): unaffected
Sendai virus infection, post-treatment [4, 24]: no effect
FIPV-1146 infectivity, treatment after entry at higher concentrations [5]: significantly reduce infectivity
FIPV-1146 infection, lysosomotropic agent treatment after entry [5, 22]: minimal effect
inhibition of entry by FIPV-1146 [5, 23]: approximately 40%
influenza virus infection, post-treatment [7, 24]: no effect
entry of influenza virus [7, 23]: completely blocked entry

CCCNC(=O)[C@H]1O[C@@H]1C(=O)N[C@H](C(=O)N1CCC[C@H]1C(=O)OC)[C@@H](C)CC (relative stereo) [CA074-Me, [L-3-trans-(Propylcarbamoyl)oxirane-2-carbonyl]-L-isoleucyl-L-proline Methyl Ester]
infection by FIPV-DF2 of feline cell lines [1, 21]: almost completely prevented infection
infection by FIPV-1146 of feline cell lines [2, 21]: almost completely prevented infection
infection by FECV-1683 (entry), inhibitor pre-incubation ([3]; A-72 cells): potently blocked infection
infection by FECV-1683, inhibitor treatment after entry ([3]; A-72 cells): no effect
inhibition of infection by FIPV-DF2 of primary feline blood monocytes [10]: 85-95%
inhibition of cathepsin B in a mouse [16]: inhibit cathepsin B
apparent second order rate constant for cathepsin B [17]: 201 M⁻¹ s⁻¹
infection by FIPV-1146 (entry), inhibitor pre-incubation [5, 20]: almost completely blocked infection
infection by FIPV-1146, inhibitor treatment after entry ([5]; A-72 cells, inhibitor 60 min post-infection, fixed 6 h post-infection): no effect
infection by FECV-1683 of feline cell lines [6]: almost completely prevented infection
replication of the serotype I FIPV strain [18]: can inhibit replication
production of FIPV-1146 viral particles (extracellular virus, TCID50) [8]: considerably limited the production
influenza virus entry, cathepsin inhibitor treatment ([7]; A-72 cells, […]): Neither the cathepsin B nor the cathepsin L inhibitor had an effect
inhibition of infection by FIPV-1146 of primary feline blood monocytes [11]: 85-95%
apparent second order rate constant for cathepsin L [19]: 85 M⁻¹ s⁻¹
production of FECV-1683 viral particles (extracellular virus, TCID50) [9]: considerably limited the production

B1: cystatin C: a potent inhibitor of cathepsin B (protein, UniProt P01034 27-146, looked up)
Cystatin-C: SSPGKPPRLVGGPMDASVEEEGVRRALDFAVGEYNKASNDMYHSRALQVVRARKQIVAGVNYFLDVELGRTTCTKTQPNLDNCPFHDQPHLKRKAFCSFQIYAVPWQGTMTLSKSTCQDA
replication of murine coronavirus A59 [12]: lack of inhibition
replication of human coronavirus [13]: inhibited replication
